# Laboratory results taken from ChEMBL document CHEMBL1201862, “PubChem BioAssay data set” (2004).
#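 Briefly, cells in 96-well plates were exposed to five compound concentrations for 48 h, and endpoints were estimated by linear interpolation. Here, GI50 denotes the concentration required for 50% inhibition of growth.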 Active and inactive are the calls of the source. Cut-off read from the data, not from the text of the source: active = GI50 up to about 1.1 µM and inactive = higher.
# Tests used:
# Test in all cases: growth of human tumour cells (NCI), 48 h
# 786-0 = test system: 786-0
# HCT-15 = test system: HCT-15
# HL-60 = test system: HL-60
# HOP-92 = test system: HOP-92
# Hs-578T = test system: Hs-578T
# IGROV-1 = test system: IGROV-1
# K562 = test system: K562
# Malme-3M = test system: Malme-3M
# NCI-H226 = test system: NCI-H226
# PC-3 = test system: PC-3
# RPMI-8226 = test system: RPMI-8226
# SF-539 = test system: SF-539
# SK-OV-3 = test system: SK-OV-3
# SN12C = test system: SN12C
# SNB-19 = test system: SNB-19
# SW-620 = test system: SW-620
# T47D = test system: T47D
# UACC-257 = test system: UACC-257
# UACC-62 = test system: UACC-62
# UO-31 = test system: UO-31
Structure (SMILES),GI50 (786-0),GI50 (HCT-15) [µM],GI50 (HL-60),GI50 (HOP-92),GI50 (Hs-578T),GI50 (IGROV-1),GI50 (K562),GI50 (Malme-3M),GI50 (NCI-H226),GI50 (PC-3),GI50 (RPMI-8226),GI50 (SF-539),GI50 (SK-OV-3),GI50 (SN12C),GI50 (SNB-19),GI50 (SW-620),GI50 (T47D),GI50 (UACC-257),GI50 (UACC-62),GI50 (UO-31)
CC(C)=CCc1c(O)cc2oc(-c3ccc(O)cc3O)cc(=O)c2c1O,26 µM (inactive),23,20.1 µM (inactive),32.4 µM (inactive),42.8 µM (inactive),33.5 µM (inactive),8.87 µM (inactive),25.3 µM (inactive),57 µM (inactive),34.7 µM (inactive),17.4 µM (inactive),27.4 µM (inactive),36 µM (inactive),28.8 µM (inactive),40.6 µM (inactive),28 µM (inactive),19 µM (inactive),30.9 µM (inactive),18.1 µM (inactive),4.32 µM (inactive)
NCc1ccc(O)c(O)c1O,15.9 µM (inactive),24.7,30.3 µM (inactive),> 58.6 µM (inactive),10.7 µM (inactive),38.9 µM (inactive),23.6 µM (inactive),71.1 µM (inactive),> 46.8 µM (inactive),33 µM (inactive),26.9 µM (inactive),27.1 µM (inactive),> 78 µM (inactive),20 µM (inactive),54.5 µM (inactive),20 µM (inactive),26.2 µM (inactive),30.8 µM (inactive),27.1 µM (inactive),59.7 µM (inactive)
